From patent US11945806B2, “Stabilization of amyloidogenic immunoglobulin light chains” (The Scripps Research Institute, priority 2019, dated 2024)

What was measured:
JTO-V = JTO-V (Homo sapiens, UniProt P01721); experiment: NMR native-state hydrogen-deuterium exchange; format: biochemical; settings: 1 at 500 μM
Description: (§1) Native-state hydrogen exchange experiments were measured for WIL-V at 0.2 mM and JTO-V at 0.1 mM with or without 0.5 mM 1. […] Per-residue exchange rates k, were converted to free energies using the equation where krc are the residue-specific exchange rates of unprotected amides (18):
(§2) To verify that binding of 1 reduces LC unfolding under non-denaturing conditions, we measured residue-specific hydrogen-deuterium exchange rates by NMR of WIL-V and JTO-V (100 μM) in the absence of or with 1 (500 μM). These rates (the decrease in intensity of the HSQC peak associated with each amide) are converted to free energies that report on each amide's folding equilibrium by normalizing for the published exchange rates of amides in unstructured peptides.

WIL-V = WIL-V (Homo sapiens, UniProt P01721); experiment: NMR native-state hydrogen-deuterium exchange; format: biochemical; settings: 1 at 500 μM
Description: as §1, §2

5J8 Fab (LC:HC dimer) = experiment: Binding of 1 by fluorescence; design: species or system human; settings: 1 at 1 μM
WIL-FL = WIL-FL (Homo sapiens, UniProt P01721); experiment: Equilibrium unfolding, urea titration; format: biochemical; settings: 1 at 100 μM or 5 at 50 μM, WIL-FL 5 μM; 1.4 M without ligand
Description: Equilibrium unfolding. WIL-FL (5 μM) was titrated against urea in 50 mM sodium phosphate buffer, pH 7.0, containing 50 μM 5 or 100 μM 1. After incubation overnight at 25° C., intrinsic tryptophan fluorescence emission spectra were measured using a Jasco 8600 fluorimeter (μex=280 nm, μem=300-420 nm). Average wavelength (also known as center of spectral mass) values were calculated using the equation: […]
λi and Ii are the are the wavelength and intensity at i, respectively. Average wavelength data were normalized for comparison. […] Midpoint urea concentrations were calculated by fitting the titration data to a 2-state unfolding equation: […]
x is the urea concentration (M), G is the free energy of unfolding (kJ mol^−1), m is the denaturant dependence of the unfolding reaction (kJ mol^−1 M^−1), R is the ideal gas constant, T is the temperature in K, a and c are the fluorescence of the folded and unfolded states, and b and d are the denaturant dependence of the fluorescence of the folded and unfolded states, respectively.

WIL-FL* = WIL-FL* (Homo sapiens, UniProt P01721, K101C, form not given); experiment: Protease-coupled fluorescence polarization (PCFP) assay with proteinase K; settings: secondary screen, mean ± sd, n=3; 6.75 μM compound; FP retention after 24 h at 22° C., normalized to high and low controls
[1] = system: isolated V-domains from WIL, ALMC2 and 6aJL2; experiment: Fluorogenic coumarin titration, isolated V-domains; format: binding, human; settings: 1 at 1 μM
Description: (§3) Fluorogenic coumarin titration. LCs were concentrated to 200 μM in centrifugal concentrators with a 10 kDa membrane, unless the available material was limiting. […] Fluorescence of 1 was measured on a Gemini plate reader (Molecular Devices) using an excitation wavelength of 373 nm and emission wavelength of 445 nm. Data were normalized platewise to the plateau fluorescence value for WIL-FL to calculate the fraction of 1 bound.
A successful kinetic stabilizer should, but is not required to, bind to and stabilize patient LCs with a vast range of sequences (30, 31). To ask whether 1 can stabilize other FL LC sequences, we measured binding of 1 to three more recombinant λ6-57 FL LC disulfide-linked dimers: JTO-FL; ALMC2-FL, an AL-associated LC sequence derived from the ALMC2 cell line (32); and the germline sequence 6aJL2-FL.

[2] = system: WIL-FL and JTO-FL variants with F98D mutation; experiment: Fluorogenic coumarin titration, F98D variants; format: binding, human; settings: 1 at 1 μM; presence or absence of the C214 inter-chain disulfide bond
Description: as §3
To further test the hypothesis that 1 binds at the interface between the V-domains, we measured binding of 1 to WIL-FL and JTO-FL variants with mutations designed to disrupt the dimer (22). The F98D mutation, which disrupts the V-domain-V-domain interface, rendered binding of 1 (1 μM) undetectable in the presence or absence of the C214 inter-chain disulfide bond (FIG. 2d, right panel).

[3] = system: WIL-FL and JTO-FL with residue 46 mutated to leucine; experiment: Fluorogenic coumarin titration, residue 46 to leucine variants; format: binding, human
Excerpt: The residues used by JTO to bind 1 are highly conserved (FIG. 3d). Residues Y36, P44, Y87 and F98 are present in 88, 99, 95 and 100% of all human germline LC genes, respectively, whereas T46 is only present in two functional germline genes.

CCN(CC)c1ccc2c(C)cc(=O)oc2c1 [Compound 1, 7-diethylamino-4-methylcoumarin]
average stabilization (free energy from exchange rates) (JTO-V): 0.6 kcal/mol
average stabilization (free energy from exchange rates) (WIL-V): 0.6 kcal/mol
binding to 1 as measured by fluorescence (5J8 Fab (LC:HC dimer)): no apparent binding
midpoint concentration of urea required to unfold the FL LC (WIL-FL): 2.0 M
PK activity (%) (WIL-FL*): 47.8 ± 0.7%
affinity for 1 [1]: reduced affinity
binding of 1 [2]: undetectable
binding affinity of 1 [3]: slightly enhances the binding affinity
